{"source": "ChEMBL document CHEMBL1201862", "about": "“PubChem BioAssay data set” (2004)", "assay_in_all_cases": "NCI-60 cell line screen, 48 h", "key": {"SNB-78": {"system": "SNB-78"}, "DMS-114": {"system": "DMS-114"}, "SF-268": {"system": "SF-268"}, "ACHN": {"system": "ACHN"}, "SF-539": {"system": "SF-539"}, "NCI-H522": {"system": "NCI-H522"}, "KM12": {"system": "KM12"}, "OVCAR-4": {"system": "OVCAR-4"}, "HL-60": {"system": "HL-60"}, "Malme-3M": {"system": "Malme-3M"}, "SK-MEL-28": {"system": "SK-MEL-28"}, "SNB-75": {"system": "SNB-75"}, "K562": {"system": "K562"}, "HOP-62": {"system": "HOP-62"}, "U-251": {"system": "U-251"}, "SK-MEL-2": {"system": "SK-MEL-2"}, "UACC-62": {"system": "UACC-62"}, "UO-31": {"system": "UO-31"}, "A498": {"system": "A498"}, "KM-20L2": {"system": "KM-20L2"}, "CCRF-CEM": {"system": "CCRF-CEM"}, "COLO 205": {"system": "COLO 205"}, "HT-29": {"system": "HT-29"}, "LXFL 529": {"system": "LXFL 529"}, "NCI-H460": {"system": "NCI-H460"}, "IGROV-1": {"system": "IGROV-1"}, "UACC-257": {"system": "UACC-257"}, "HOP-92": {"system": "HOP-92"}, "SR": {"system": "SR"}, "SF-295": {"system": "SF-295"}, "SNB-19": {"system": "SNB-19"}, "MOLT-4": {"system": "MOLT-4"}, "M19-MEL": {"system": "M19-MEL"}, "NCI-H23": {"system": "NCI-H23"}, "HCC 2998": {"system": "HCC 2998"}, "RPMI-8226": {"system": "RPMI-8226"}, "SK-OV-3": {"system": "SK-OV-3"}, "OVCAR-5": {"system": "OVCAR-5"}, "HCT-116": {"system": "HCT-116"}, "M14": {"system": "M14"}, "OVCAR-3": {"system": "OVCAR-3"}, "DLD-1": {"system": "DLD-1"}, "DMS-273": {"system": "DMS-273"}, "786-0": {"system": "786-0"}, "CAKI-1": {"system": "CAKI-1"}, "NCI-H226": {"system": "NCI-H226"}}, "note": "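The compound was tested at five concentrations on cells cultured in 96-well plates, with a 48-hour exposure period. GI50 = concentration required for 50% inhibition of growth.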 Calls of active or inactive are those of the source. Cut-off read from the data, not from the text of the source: active = GI50 up to about 1.1 µM and inactive = higher.", "data": [{"smiles": "CCN(CC)CCCC(C)Nc1cc(-c2ccccc2)nc2cc(OC)ccc12", "note": "(stereo not given)", "values": [{"measurement": "GI50", "setting": "SNB-78", "result": "3.21 µM (inactive)"}, {"measurement": "GI50", "setting": "DMS-114", "result": "6.68 µM (inactive)"}, {"measurement": "GI50", "setting": "SF-268", "result": "12.8 µM (inactive)"}, {"measurement": "GI50", "setting": "ACHN", "result": "6.53 µM (inactive)"}, {"measurement": "GI50", "setting": "SF-539", "result": "3.05 µM (inactive)"}, {"measurement": "GI50", "setting": "NCI-H522", "result": "6.44 µM (inactive)"}, {"measurement": "GI50", "setting": "KM12", "result": "5.33 µM (inactive)"}, {"measurement": "GI50", "setting": "OVCAR-4", "result": "4.88 µM (inactive)"}, {"measurement": "GI50", "setting": "HL-60", "result": "2.55 µM (inactive)"}, {"measurement": "GI50", "setting": "Malme-3M", "result": "10.4 µM (inactive)"}, {"measurement": "GI50", "setting": "SK-MEL-28", "result": "6.22 µM (inactive)"}, {"measurement": "GI50", "setting": "SNB-75", "result": "11.8 µM (inactive)"}, {"measurement": "GI50", "setting": "K562", "result": "0.8 µM (active)"}, {"measurement": "GI50", "setting": "HOP-62", "result": "5.25 µM (inactive)"}, {"measurement": "GI50", "setting": "U-251", "result": "4.22 µM (inactive)"}, {"measurement": "GI50", "setting": "SK-MEL-2", "result": "12.6 µM (inactive)"}, {"measurement": "GI50", "setting": "UACC-62", "result": "17.6 µM (inactive)"}, {"measurement": "GI50", "setting": "UO-31", "result": "2.54 µM (inactive)"}, {"measurement": "GI50", "setting": "A498", "result": "5.61 µM (inactive)"}, {"measurement": "GI50", "setting": "KM-20L2", "result": "2.25 µM (inactive)"}, {"measurement": "GI50", "setting": "CCRF-CEM", "result": "1.3 µM (inactive)"}, {"measurement": "GI50", "setting": "COLO 205", "result": "2.91 µM (inactive)"}, {"measurement": "GI50", "setting": "HT-29", "result": "1.94 µM (inactive)"}, {"measurement": "GI50", "setting": "LXFL 529", "result": "6.28 µM (inactive)"}, {"measurement": "GI50", "setting": "NCI-H460", "result": "2.92 µM (inactive)"}, {"measurement": "GI50", "setting": "IGROV-1", "result": "13.2 µM (inactive)"}, {"measurement": "GI50", "setting": "UACC-257", "result": "17.4 µM (inactive)"}, {"measurement": "GI50", "setting": "HOP-92", "result": "2.23 µM (inactive)"}, {"measurement": "GI50", "setting": "SR", "result": "2.71 µM (inactive)"}, {"measurement": "GI50", "setting": "SF-295", "result": "8.79 µM (inactive)"}, {"measurement": "GI50", "setting": "SNB-19", "result": "> 10 µM (inactive)"}, {"measurement": "GI50", "setting": "MOLT-4", "result": "2.14 µM (inactive)"}, {"measurement": "GI50", "setting": "M19-MEL", "result": "10.1 µM (inactive)"}, {"measurement": "GI50", "setting": "NCI-H23", "result": "15.4 µM (inactive)"}, {"measurement": "GI50", "setting": "HCC 2998", "result": "1.15 µM (inactive)"}, {"measurement": "GI50", "setting": "RPMI-8226", "result": "2.07 µM (inactive)"}, {"measurement": "GI50", "setting": "SK-OV-3", "result": "16.3 µM (inactive)"}, {"measurement": "GI50", "setting": "OVCAR-5", "result": "2.48 µM (inactive)"}, {"measurement": "GI50", "setting": "HCT-116", "result": "2.84 µM (inactive)"}, {"measurement": "GI50", "setting": "M14", "result": "1.84 µM (inactive)"}, {"measurement": "GI50", "setting": "OVCAR-3", "result": "12.2 µM (inactive)"}]}, {"smiles": "Cc1c2cc(Cl)ccc2n2c(=O)c3ccccc3[nH]c(=O)c12", "values": [{"measurement": "GI50", "setting": "SNB-78", "result": "> 100 µM (inactive)"}, {"measurement": "GI50", "setting": "DMS-114", "result": "> 100 µM (inactive)"}, {"measurement": "GI50", "setting": "SF-268", "result": "> 100 µM (inactive)"}, {"measurement": "GI50", "setting": "DLD-1", "result": "> 100 µM (inactive)"}, {"measurement": "GI50", "setting": "DMS-273", "result": "> 100 µM (inactive)"}, {"measurement": "GI50", "setting": "SF-539", "result": "78.2 µM (inactive)"}, {"measurement": "GI50", "setting": "NCI-H522", "result": "> 100 µM (inactive)"}, {"measurement": "GI50", "setting": "OVCAR-4", "result": "49.8 µM (inactive)"}, {"measurement": "GI50", "setting": "HL-60", "result": "> 10 µM (inactive)"}, {"measurement": "GI50", "setting": "Malme-3M", "result": "> 100 µM (inactive)"}, {"measurement": "GI50", "setting": "SK-MEL-28", "result": "> 100 µM (inactive)"}, {"measurement": "GI50", "setting": "SNB-75", "result": "59.6 µM (inactive)"}, {"measurement": "GI50", "setting": "K562", "result": "50.1 µM (inactive)"}, {"measurement": "GI50", "setting": "HOP-62", "result": "31.2 µM (inactive)"}, {"measurement": "GI50", "setting": "SK-MEL-2", "result": "> 100 µM (inactive)"}, {"measurement": "GI50", "setting": "UACC-62", "result": "> 100 µM (inactive)"}, {"measurement": "GI50", "setting": "UO-31", "result": "> 100 µM (inactive)"}, {"measurement": "GI50", "setting": "CCRF-CEM", "result": "36.1 µM (inactive)"}, {"measurement": "GI50", "setting": "COLO 205", "result": "> 100 µM (inactive)"}, {"measurement": "GI50", "setting": "LXFL 529", "result": "> 100 µM (inactive)"}, {"measurement": "GI50", "setting": "IGROV-1", "result": "> 100 µM (inactive)"}, {"measurement": "GI50", "setting": "HOP-92", "result": "> 100 µM (inactive)"}, {"measurement": "GI50", "setting": "SR", "result": "45.3 µM (inactive)"}, {"measurement": "GI50", "setting": "786-0", "result": "41.5 µM (inactive)"}, {"measurement": "GI50", "setting": "CAKI-1", "result": "> 100 µM (inactive)"}, {"measurement": "GI50", "setting": "MOLT-4", "result": "42.9 µM (inactive)"}, {"measurement": "GI50", "setting": "M19-MEL", "result": "> 100 µM (inactive)"}, {"measurement": "GI50", "setting": "NCI-H23", "result": "> 100 µM (inactive)"}, {"measurement": "GI50", "setting": "HCC 2998", "result": "> 100 µM (inactive)"}, {"measurement": "GI50", "setting": "RPMI-8226", "result": "> 100 µM (inactive)"}, {"measurement": "GI50", "setting": "SK-OV-3", "result": "> 100 µM (inactive)"}, {"measurement": "GI50", "setting": "HCT-116", "result": "69.2 µM (inactive)"}, {"measurement": "GI50", "setting": "NCI-H226", "result": "> 100 µM (inactive)"}, {"measurement": "GI50", "setting": "M14", "result": "> 100 µM (inactive)"}]}]}
